Test system: β-galactosidase in tumor sections
Test: IHC analysis of β-galactosidase staining in intraliver tumor sections after i.v. dosing of Lipid-Based Particles
Format: in vivo, Scid female mice
Set-up: key: −: there was no staining, a small area of weak staining, or disperse strong single cell staining; ±: there was 5% of the section with weak staining or one patch of strong staining; +: there was 15% of the section with strong staining; ++: there was ˜50% of the section with strong straining; +++: there was 80% of the section with strong straining; ++++: the whole section had strong staining
Conditions: intraliver tumor model, Scid mice, tail vein (i.v) injection
Method: The animal studies were carried out in accordance with internal Institutional Animal Care and Use Committee (IACUC) guidelines at Abbott Laboratories. Scid female mice at 6 to 8 weeks of age were obtained from Charles River Laboratory and used for […] tumor models. Mouse livers were exposed by vertical incision on mouse abdomens and the tumor cells were directly injected into the livers. The incision was closed by suture and wound clips. All cell lines used for creating xenograft tumors were subjected to the IMPACT profile I test (18 agents) at the University of Missouri Research Animal Diagnostic and Investigative Laboratory, and all cell lines were found negative for the 18 infectious agents tested. Tumor cells were suspended in a 1:1 mixture of S-MEM (Invitrogen, Carlsbad, Calif.) and matrigel (BD Bioscience, San Jose, Calif.) and inoculated at 1×10E6 cells per animal. Treatments were started 3 4 weeks after tumor inoculation. Formulated or unformulated siRNAs were administrated via tail vein (i.v) injection. IHC was carried out as previously described [Li, L., et al., Evaluating hypoxia-inducible factor-1alpha as a cancer therapeutic target via inducible RNA interference in vivo. Cancer Res, 2005. 65(16): p. 7249-58]. Briefly, tumors were excised, cut into pieces of less than 3 mm in thickness and immediately fixed in buffered formalin solution with neutral pH (Sigma, St. Louis, Mo.). The formalin-fixed and paraffin-embedded tumor sections were then used for staining. The mouse anti-β-galactosidase mAb (Promega, Madison, Wis.) was used to detect β-galactosidase in tumor sections. […] IHC images were acquired using the Nikon TE2000 inverted microscope. The β-galactosidase staining was evaluated by 2 people independently based on the scoring system listed below. The average of the score was calculated for each tumor.

Measured: In vivo Response (β-galactosidase IHC staining score)

C[C@H]1c2cccc(O)c2C(=O)C2=C(O)[C@]3(O)C(=O)C(C(N)=O)=C(O)[C@@H](N(C)C)[C@@H]3[C@@H](O)[C@@H]21 [Doxycycline]
+++: column 1 (individual tumor, head not explained) | column 2 (individual tumor, head not explained) | column 3 (individual tumor, head not explained) | column 4 (individual tumor, head not explained) | column 5 (individual tumor, head not explained) | column 6 (individual tumor, head not explained)
